Counter-ions that a name gives are not always drawn. Like-named read-outs stand apart in the source and are kept apart here.
Experiments:
[1] = test system: SARS-CoV-2-ΔOrf7a-NLuc virus; assay: microbe, parasite or virus in culture; assay type: cell-based; settings: for activity at 10 µM: Severe acute respiratory syndrome coronavirus 2, Vero, 72 h, read-out: Mean relative luminescence (n=4); for activity at 10 µM / Mean relative luminescence (n=4): 1 = untreated, 0 = total inhibition
recombinant NLuc = assay type: biochemical; settings: for Relative Recombinant NLUC: recombinant NLuc activity relative to DMSO; for Reads Counts per second (read 1) / Reads Counts per second (read 4) / Reads Counts per second (read 3) / Reads Counts per second (read 2): recombinant NLuc; for Reads Counts per second (read 1): first read column; for Reads Counts per second (read 4): fourth read column; for Reads Counts per second (read 3): third read column
[2] = Vero cells, 10 μM, 1 = DMSO-treated infected cells

SMILES	% activity in Vero 100PFU screen [1] [%]	activity at 10 µM [1] [%]	Relative Recombinant NLUC (recombinant NLuc)	Reads Counts per second (read 1) (recombinant NLuc) [Counts per second]	Reads Counts per second (read 4) (recombinant NLuc) [Counts per second]	Reads Counts per second (read 3) (recombinant NLuc) [Counts per second]	PrestoBlue relative viability (Vero cells; [2])	Mean relative luminescence (n=4) [1]	PrestoBlue relative viability (Vero cells; African green monkey)	Reads Counts per second (read 2) (recombinant NLuc) [Counts per second]
CSc1nc2cc(Cl)c(Oc3cccc(Cl)c3Cl)cc2[nH]1 [Triclabendazole]	12	9.74	0.8923	335937	339544	336143	0.62			
Cc1cc(Nc2cc(CN3CCOCC3)c3nc(C)c(Cc4ccc(Cl)cc4F)n3n2)n[nH]1 [LY2784544]		0.145					0.7859			
COc1ccc(-n2nc(C(N)=O)c3c2C(=O)N(c2ccc(N4CCCCC4=O)cc2)CC3)cc1 [Apixaban]		0.124					2.564			
N[C@@H](CC(=O)N1CCn2c(nnc2C(F)(F)F)C1)Cc1cc(F)c(F)cc1F [Sitagliptin phosphate monohydrate]		0.0141					2.5607			
Nc1cccc2c1CN(C1CCC(=O)NC1=O)C2=O (centres unmarked) [Lenalidomide (CC-5013), Lenalidomide]		0.218					2.058			
C=CC(=O)Nc1cccc(Nc2nc(Nc3ccc(N4CCN(C(C)=O)CC4)cc3OC)ncc2C(F)(F)F)c1 [CO-1686 (AVL-301)]	3		0.8551	327566	319872	324163	0.5096	0.02339		
Oc1c(Cl)cc(Cl)c2cccnc12 [Chloroxine]	6.5	3.55	0.9975	380665	374884	374596	0.5777			
CN(CCOc1ccc(CC2SC(=O)NC2=O)cc1)c1ccccn1 (centres unmarked) [Rosiglitazone]		0.183					3.111			
CCCCCCCCc1ccc(CCC(N)(CO)CO)cc1 [Fingolimod (FTY720), Fingolimod]	3	0.757	0.9393	354171	351555	356587	0.6911			
CC(=O)[C@]1(O)Cc2c(O)c3c(c(O)c2[C@@H](O[C@H]2C[C@H](N)[C@H](O)[C@H](C)O2)C1)C(=O)c1ccccc1C3=O [Idarubicin HCl]	2.14	1.49	0.861	327538	318222	325691	0.5406			
CCc1ccc(CCOc2ccc(CC3SC(=O)NC3=O)cc2)nc1 (centres unmarked) [Pioglitazone HCl]		0.204							3.485	
NCCC(O)(P(=O)([O-])O)P(=O)([O-])O.[Na+].[Na+] [Pamidronate Disodium]	2.29		0.8313	309519	313941	313471	0.5456	0.01648		
CC[C@@H]([C@H](C)O)n1ncn(-c2ccc(N3CCN(c4ccc(OC[C@@H]5CO[C@@](Cn6cncn6)(c6ccc(F)cc6F)C5)cc4)CC3)cc2)c1=O [Posaconazole]	6	5.17	0.8565	325406	315077	324458	0.7676			
Cl.Fc1ccc([C@@H]2CCNC[C@H]2COc2ccc3c(c2)OCO3)cc1 [Paroxetine HCl]	12		0.9732	360169	368856	369849	1.088	0.09097		
COc1cc2c(Oc3ccc4[nH]c(C)cc4c3F)ncnc2cc1OCCCN1CCCC1 [Cediranib (AZD217), Cediranib]	3.31	2.67	0.9439	350524	362844	354116	0.559			
CC1=NN(c2ccc(C)c(C)c2)C(=O)/C1=N\Nc1cccc(-c2cccc(C(=O)O)c2)c1O [Eltrombopag]	3.72	0.991	0.8666	331875	322913	331553	0.7191			
CC(C)C(=O)OCC(=O)[C@@]12O[C@H](C3CCCCC3)O[C@@H]1C[C@H]1[C@@H]3CCC4=CC(=O)C=C[C@]4(C)[C@H]3[C@@H](O)C[C@@]12C [Ciclesonide]		14.1					0.5125			
CC[C@@H](C(=O)[C@@H](C)[C@@H](O)[C@H](C)[C@@H]1O[C@@H]([C@@H](CC)C(=O)O)CC[C@@H]1C)[C@H]1O[C@]2(C=C[C@@H](O)[C@]3(CC[C@@](C)([C@H]4CC[C@](O)(CC)[C@H](C)O4)O3)O2)[C@H](C)C[C@@H]1C [Salinomycin]	3.75	1.89	0.9779	365050	367850	373342	0.6121			
CCN1C[C@H](C)n2c(c(O)c3c(=O)n(Cc4ccc(F)c(Cl)c4)nc(C(=O)NC)c32)C1=O [MK-2048]							2.267	0.000491		
CCCCCCCCCCCCCCCC[N+](C)(C)CCN(Cc1ccc(OC)cc1)c1ncccn1 [Thonzonium Bromide]		10.4					0.6049			
COc1cccc2c1C(=O)c1c(O)c3c(c(O)c1C2=O)C[C@@](O)(C(=O)CO)C[C@@H]3O[C@H]1C[C@H](N)[C@@H](O)[C@H](C)O1 [Epirubicin HCl]	3.44	2.8	0.8025	298948	310338	302560			0.9127	
Clc1ccccc1C(c1ccccc1)(c1ccccc1)n1ccnc1 [Clotrimazole]		13.9					1.057			
Clc1ccc(CCC(Cn2ccnc2)Sc2c(Cl)cccc2Cl)cc1 (centres unmarked) [Butoconazole nitrate]		11.6					0.6922			
C=CCNC1=C2C[C@@H](C)C[C@H](OC)[C@H](O)[C@@H](C)/C=C(\C)[C@H](OC(N)=O)[C@@H](OC)/C=C\C=C(/C)C(=O)NC(=CC1=O)C2=O [17-AAG (KOS953), 17-AAG]	209		0.9121	339450	348179	343744				347084
O=C(O)COCCN1CCN(C(c2ccccc2)c2ccc(Cl)cc2)CC1 (centres unmarked) [Cetirizine]	161		0.4486	170134	171706	168670				
CC(C)c1cc(C(=O)N2Cc3ccc(CN4CCN(C)CC4)cc3C2)c(O)cc1O [AT13387]	191		0.7978	289397	303901	309451				302902
Cc1ccnc2c1NC(=O)c1cccnc1N2C1CC1 [Nevirapine]	187		0.9932	371882	373316	379254				
C#C[C@]1(O)CC[C@H]2[C@@H]3CCC4=CCCC[C@@H]4[C@H]3C(=C)C[C@@]21CC [Desogestrel]		14.5					0.6657			
O=S(=O)(O)c1cc(O)ccc1O [Ethamsylate]	167		1.029	388357	386776	391647				
Oc1cc(Cl)ccc1Oc1ccc(Cl)cc1Cl [Triclosan]		10.6					0.5234			

Reference: PMC8428568, “Discovery of re-purposed drugs that slow SARS-CoV-2 replication in human cells” (PLoS Pathogens, 2021)
